Data: ChEMBL document CHEMBL3621090, “Discovery of a novel Kv7 channel opener as a treatment for epilepsy” (Bioorg Med Chem Lett, 2015)

Legend:
[1] = molecular target: T1, Potassium voltage-gated channel subfamily KQT member 4 (Homo sapiens, UniProt P56696); experiment: Activation of human Kv7.4 expressed in CHOK1 cells; type: cell-based, CHO-K1
T1 sequence (P56696 whole entry): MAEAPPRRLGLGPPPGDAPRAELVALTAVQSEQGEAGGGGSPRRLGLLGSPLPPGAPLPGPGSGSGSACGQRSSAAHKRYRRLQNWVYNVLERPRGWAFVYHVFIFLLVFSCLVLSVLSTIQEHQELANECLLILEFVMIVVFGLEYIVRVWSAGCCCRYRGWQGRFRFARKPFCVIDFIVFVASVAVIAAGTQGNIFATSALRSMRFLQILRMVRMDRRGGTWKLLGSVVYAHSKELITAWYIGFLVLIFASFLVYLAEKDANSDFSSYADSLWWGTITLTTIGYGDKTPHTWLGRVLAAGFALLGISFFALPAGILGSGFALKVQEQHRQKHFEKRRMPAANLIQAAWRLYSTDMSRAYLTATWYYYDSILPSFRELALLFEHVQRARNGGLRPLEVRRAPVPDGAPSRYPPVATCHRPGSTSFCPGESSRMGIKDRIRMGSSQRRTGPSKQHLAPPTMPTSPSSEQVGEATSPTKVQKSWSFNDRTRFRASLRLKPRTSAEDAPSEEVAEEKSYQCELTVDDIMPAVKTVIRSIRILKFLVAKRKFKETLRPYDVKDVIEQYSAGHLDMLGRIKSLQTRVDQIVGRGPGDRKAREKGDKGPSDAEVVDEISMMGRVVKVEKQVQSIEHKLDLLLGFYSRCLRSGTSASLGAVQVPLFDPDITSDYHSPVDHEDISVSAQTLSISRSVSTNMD

Brain [2] = experiment: Fraction unbound in Sprague-Dawley rat brain at 1 mg/kg, po administered at 60 mins by LC-MS/MS analysis; type: ADME, organism-based; conditions: in vivo, 1 h
[3] = Ratio of free drug level in plasma to brain in Sprague-Dawley rat at 3 mg/kg, sc administration at 30 mins; type: ADME, organism-based; conditions: in vivo, 0.5 h
MDCK = experiment: Efflux ratio of permeability from basolateral to apical over apical to basolateral side in MDCK cells transfected with MDR1; type: ADME, cell-based, Canis lupus familiaris; conditions: dog
[4] = molecular target: T2, Voltage-gated potassium channel, KQT; KCNQ2(Kv7.2)/KCNQ3(Kv7.3) (Homo sapiens) (UniProt O43526+O43525); experiment: Activation of human Kv7.2/7.3 expressed in CHOK1 cells assessed as increase in current amplitude relative to control; type: cell-based; conditions: CHO-K1
Brain [5] = experiment: Fraction unbound in Sprague-Dawley rat brain at 30 mg/kg, po administered at 60 mins by LC-MS/MS analysis; type: ADME, organism-based; conditions: in vivo, 1 h
Brain [6] = experiment: Fraction unbound in Sprague-Dawley rat brain at 3 mg/kg, sc administered at 30 mins by LC-MS/MS analysis; type: ADME, organism-based; conditions: in vivo, 0.5 h
[7] = Activation of rat Kv7.3/7.5 expressed in CHOK1 cells; type: cell-based; conditions: CHO-K1
Plasma [8] = experiment: Unbound plasma concentration in Sprague-Dawley rat at 1 mg/kg, po administered at 60 mins by LC-MS/MS analysis; type: ADME, organism-based; conditions: in vivo, 1 h
[9] = molecular target: Voltage-gated potassium channel, KQT; KCNQ2(Kv7.2)/KCNQ3(Kv7.3) (Homo sapiens, UniProt O43525+O43526); experiment: (§1) Activation of human Kv7.2/7.3 expressed in CHOK1 cells; type: cell-based, CHO-K1
[10] = molecular target: T2, Voltage-gated potassium channel, KQT; KCNQ2(Kv7.2)/KCNQ3(Kv7.3) (Homo sapiens); experiment: as §1; type: cell-based; conditions: CHO-K1
[11] = Fraction unbound in rat brain by equilibrium dialysis method; type: ADME, tissue-based
[12] = Ratio of free drug level in plasma to brain in Sprague-Dawley rat at 1 mg/kg, sc administration at 30 mins; type: ADME, organism-based; conditions: in vivo, 0.5 h
Brain [13] = experiment: Fraction unbound in Sprague-Dawley rat brain at 30 mg/kg, sc administered at 30 mins by LC-MS/MS analysis; type: ADME, organism-based; conditions: in vivo, 0.5 h
[14] = Ratio of free drug level in plasma to brain in Sprague-Dawley rat at 30 mg/kg, sc administration at 30 mins; type: ADME, organism-based; conditions: in vivo, 0.5 h
Plasma [15] = experiment: Unbound plasma concentration in Sprague-Dawley rat at 3 mg/kg, po administered at 60 mins by LC-MS/MS analysis; type: ADME, organism-based; conditions: in vivo, 1 h
[16] = Intrinsic clearance in human liver microsomes measured over 1 hr in presence of NADPH regenerating system; type: ADME; conditions: read-out: CLH
[17] = Toxicity in human THLE cells assessed as ATP depletion; type: cell-based
[18] = molecular target: T3, Potassium voltage-gated channel subfamily KQT member 4 (Homo sapiens) (UniProt P56696); experiment: Activation of human Kv7.4 expressed in CHOK1 cells assessed as increase in current amplitude relative to control; type: cell-based; conditions: CHO-K1
T3 sequence (whole entry): T1 sequence (P56696 whole entry)

CHO-K1 = experiment: Activation of rat Kv7.3/7.5 expressed in CHOK1 cells assessed as increase in current amplitude relative to control; type: cell-based
[19] = Ratio of free drug level in plasma to brain in Sprague-Dawley rat at 10 mg/kg, po administration at 60 mins; type: ADME, organism-based; conditions: in vivo, 1 h
[20] = molecular target: Voltage-gated potassium channel KCNQ3/KCNQ5 (Homo sapiens, UniProt O43525+Q9NR82); experiment: Activation of human Kv7.3/7.5 expressed in CHOK1 cells assessed as increase in current amplitude relative to control; type: cell-based; conditions: CHO-K1
Plasma [21] = experiment: Unbound plasma concentration in Sprague-Dawley rat at 1 mg/kg, sc administered at 30 mins by LC-MS/MS analysis; type: ADME, organism-based; conditions: in vivo, 0.5 h
Rattus norvegicus [22] = experiment: Anticonvulsant activity in Sprague-Dawley rat assessed as protection against maximal electroshock-induced convulsion at 3 mg/kg, sc administered 30 mins prior to application of shock via corneal electrodes relative to control; type: functional
Brain [23] = experiment: Fraction unbound in Sprague-Dawley rat brain at 1 mg/kg, sc administered at 30 mins by LC-MS/MS analysis; type: ADME, organism-based; conditions: in vivo, 0.5 h
[24] = Fraction unbound in rat plasma by equilibrium dialysis method; type: ADME, cell-free
Rattus norvegicus [25] = experiment: Anticonvulsant activity in Sprague-Dawley rat assessed as protection against maximal electroshock-induced convulsion at 3 mg/kg, po administered 60 mins prior to application of shock via corneal electrodes relative to control; type: functional
Rattus norvegicus [26] = experiment: Anticonvulsant activity in sc dosed Sprague-Dawley rat assessed as protection against maximal electroshock-induced convulsion administered 30 mins prior to application of shock via corneal electrodes; type: functional, organism-based
Rattus norvegicus [27] = experiment: Anticonvulsant activity in Sprague-Dawley rat assessed as protection against maximal electroshock-induced convulsion at 30 mg/kg, po administered 60 mins prior to application of shock via corneal electrodes relative to control; type: functional
Plasma [28] = experiment: Unbound plasma concentration in Sprague-Dawley rat at 30 mg/kg, sc administered at 30 mins by LC-MS/MS analysis; type: ADME, organism-based; conditions: in vivo, 0.5 h
Plasma [29] = experiment: Unbound plasma concentration in Sprague-Dawley rat at 30 mg/kg, po administered at 60 mins by LC-MS/MS analysis; type: ADME, organism-based; conditions: in vivo, 1 h
Rattus norvegicus [30] = experiment: Anticonvulsant activity in Sprague-Dawley rat assessed as protection against maximal electroshock-induced convulsion at 10 mg/kg, sc administered 30 mins prior to application of shock via corneal electrodes relative to control; type: functional
Rattus norvegicus [31] = experiment: Anticonvulsant activity in po dosed Sprague-Dawley rat assessed as protection against maximal electroshock-induced convulsion administered 60 mins prior to application of shock via corneal electrodes; type: functional, organism-based

Voltage-gated potassium channel, KQT; KCNQ2(Kv7.2)/KCNQ3(Kv7.3), sequence (O43526 whole entry): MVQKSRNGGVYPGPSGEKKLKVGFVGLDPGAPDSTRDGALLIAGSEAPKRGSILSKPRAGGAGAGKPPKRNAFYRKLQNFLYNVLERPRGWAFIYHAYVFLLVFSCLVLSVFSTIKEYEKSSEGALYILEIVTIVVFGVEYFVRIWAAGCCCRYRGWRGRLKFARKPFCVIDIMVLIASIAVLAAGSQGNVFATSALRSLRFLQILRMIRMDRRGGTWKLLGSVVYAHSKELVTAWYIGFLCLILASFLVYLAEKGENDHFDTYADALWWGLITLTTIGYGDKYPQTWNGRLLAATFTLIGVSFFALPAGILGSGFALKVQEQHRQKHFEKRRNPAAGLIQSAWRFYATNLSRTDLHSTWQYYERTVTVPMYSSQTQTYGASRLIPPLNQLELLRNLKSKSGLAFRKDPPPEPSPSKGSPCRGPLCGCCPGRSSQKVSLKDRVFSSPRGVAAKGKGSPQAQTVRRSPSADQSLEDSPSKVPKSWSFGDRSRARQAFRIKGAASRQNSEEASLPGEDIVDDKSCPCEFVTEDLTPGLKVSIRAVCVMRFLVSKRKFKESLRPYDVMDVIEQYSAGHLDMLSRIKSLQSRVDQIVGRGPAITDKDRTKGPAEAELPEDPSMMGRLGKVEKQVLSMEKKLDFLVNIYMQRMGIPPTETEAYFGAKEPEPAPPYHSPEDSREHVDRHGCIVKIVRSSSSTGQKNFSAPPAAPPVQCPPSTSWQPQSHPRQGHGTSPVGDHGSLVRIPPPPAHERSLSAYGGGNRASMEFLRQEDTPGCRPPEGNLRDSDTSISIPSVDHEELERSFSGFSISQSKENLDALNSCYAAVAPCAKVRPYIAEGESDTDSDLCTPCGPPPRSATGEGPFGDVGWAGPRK
Voltage-gated potassium channel, KQT; KCNQ2(Kv7.2)/KCNQ3(Kv7.3), sequence (O43525 whole entry): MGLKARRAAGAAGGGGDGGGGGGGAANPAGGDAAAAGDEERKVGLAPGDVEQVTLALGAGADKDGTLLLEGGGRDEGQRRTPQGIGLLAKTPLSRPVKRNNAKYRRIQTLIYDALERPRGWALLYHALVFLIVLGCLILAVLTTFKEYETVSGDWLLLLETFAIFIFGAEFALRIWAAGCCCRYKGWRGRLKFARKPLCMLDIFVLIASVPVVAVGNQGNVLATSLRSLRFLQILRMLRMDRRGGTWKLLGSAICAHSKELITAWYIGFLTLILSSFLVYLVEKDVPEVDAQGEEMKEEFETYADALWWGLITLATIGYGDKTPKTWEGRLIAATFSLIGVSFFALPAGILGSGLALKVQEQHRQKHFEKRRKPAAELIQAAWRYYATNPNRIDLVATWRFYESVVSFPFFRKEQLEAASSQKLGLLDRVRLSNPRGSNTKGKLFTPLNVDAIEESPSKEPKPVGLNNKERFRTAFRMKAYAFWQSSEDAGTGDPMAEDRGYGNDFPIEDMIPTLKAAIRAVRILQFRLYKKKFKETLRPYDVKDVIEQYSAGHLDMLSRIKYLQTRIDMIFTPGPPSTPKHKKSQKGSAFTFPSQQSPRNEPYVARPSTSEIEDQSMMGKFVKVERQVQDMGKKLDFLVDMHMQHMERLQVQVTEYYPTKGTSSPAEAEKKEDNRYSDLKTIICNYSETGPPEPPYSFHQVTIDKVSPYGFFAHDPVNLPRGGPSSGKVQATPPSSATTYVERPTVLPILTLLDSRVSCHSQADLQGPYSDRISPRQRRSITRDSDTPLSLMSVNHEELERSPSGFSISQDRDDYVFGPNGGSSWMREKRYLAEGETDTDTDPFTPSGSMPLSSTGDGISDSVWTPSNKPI

COc1nc(N2CCC(OC)CC2)nc(OC)c1NC(=O)CC(C)(C)C
EC50 [1]: 625 nM | Drug uptake(free) (Brain [2]): 6 nM | Ratio [3]: 0.59 | Ratio (MDCK): 1.25 | Activity [4]: 265% | Drug uptake(free) (Brain [5]): 274 nM | Drug uptake(free) (Brain [6]): 90 nM | EC50 [7]: 1330 nM | Cp(f) (Plasma [8]): 15 nM | EC50 [9]: 334 nM | max activation [10]: 147% | fraction unbound [11]: 0.13 | Ratio [12]: 0.57 | Drug uptake(free) (Brain [13]): 167 nM | Ratio [14]: 0.55 | Cp(f) (Plasma [15]): 109 nM | CLint scaled [16]: 15.6 mL/min/kg | IC50 [17]: > 300000 nM | Activity [18]: 163% | Activity (CHO-K1): 207% | Ratio [19]: 0.37 | Activity [20]: 246% | Cp(f) (Plasma [21]): 58 nM | Activity (Rattus norvegicus [22]): 100% | Drug uptake(free) (Brain [23]): 33 nM | fraction unbound [24]: 0.184 | Activity (Rattus norvegicus [25]): 88% | Activity (Rattus norvegicus [26]): Dose-dependent effect | Activity (Rattus norvegicus [27]): 100% | Cp(f) (Plasma [28]): 305 nM | Cp(f) (Plasma [29]): 572 nM | Activity (Rattus norvegicus [30]): 100% | Activity (Rattus norvegicus [31]): Dose-dependent effect
